Assay results as given in patent publication US20100168421A1, “A NEW PEPTIDE DEFORMYLASE INHIBITOR COMPOUND AND MANUFACTURING PROCESS THEREOF” (priority 2007, published 2010).
≈ marks a conversion by molar mass, not a printed value. Where two headings read alike, the source gives them in different places.

Legend:
[1] = test system: Vancomycin-resistant Enterococcus faecalis; assay: MIC microdilution, VR E. faecalis; format: cell-based; conditions: read-out: MIC Vancomycin-resistant Enterococcus faecalis
Description: (§1) Minimum inhibitory concentrations (MICs) were determined using the microdilution method in 96-well format plates. Each of the compounds of Examples was dissolved in dimethyl sulfoxide to a concentration of 2 mg/mL and stored at 4° C. until used. They were diluted in Mueller-Hinton Broth (MHB) and used for MIC determination. The range of concentrations tested was […] final concentration using a two-fold dilution system. Plates were incubated at 37° C. and MIC were recorded after 24 hours of incubation for bacteria.
(§2) Linezolid and vancomycin were used as standard antibiotics, respectively.

[2] = test system: Vancomycin-resistant Enterococcus faecium; assay: MIC microdilution, VR E. faecium; format: cell-based; conditions: read-out: MIC Vancomycin-resistant Enterococcus faecium
Description: as §1, §2

PDF enzyme [3] = molecular target: PDF enzyme (Escherichia coli, UniProt P0A6K3); assay: PDF/FDH coupled enzyme assay, E. coli; format: biochemical; conditions: PDF/FDH coupled assay, substrate fMAS, absorption at 340 nm; read-out: IC50 Escherichia coli
Sequence of PDF enzyme (Escherichia coli, UniProt P0A6K3) (P0A6K3 whole entry): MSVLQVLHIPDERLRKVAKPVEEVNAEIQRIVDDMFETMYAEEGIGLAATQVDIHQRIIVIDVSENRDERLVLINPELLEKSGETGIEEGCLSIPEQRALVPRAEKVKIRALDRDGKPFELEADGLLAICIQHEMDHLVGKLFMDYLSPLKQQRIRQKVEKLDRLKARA
Description: Activities of PDF enzyme for E. coli and S. aureus were determined using PDF/FDH coupled assay. In this coupled assay, the formate released by PDF from its substrate formyl-Methionine-Alanine-Serine (fMAS) is oxidized by coupling enzyme formate dehydrogenase (FDH), reducing one molecule of NAD^+ to NADH, which is measured absorption at 340 nm.

PDF enzyme [4] = molecular target: PDF enzyme (Streptococcus pyogenes serotype M1, UniProt P68771); assay: PDF/FDH coupled enzyme assay, Streptococcus pyogenes; format: biochemical; conditions: PDF/FDH coupled assay, substrate fMAS, absorption at 340 nm; read-out: IC50 Streptococcus pyogenes
Sequence of PDF enzyme (Streptococcus pyogenes serotype M1, UniProt P68771) (P68771 whole entry): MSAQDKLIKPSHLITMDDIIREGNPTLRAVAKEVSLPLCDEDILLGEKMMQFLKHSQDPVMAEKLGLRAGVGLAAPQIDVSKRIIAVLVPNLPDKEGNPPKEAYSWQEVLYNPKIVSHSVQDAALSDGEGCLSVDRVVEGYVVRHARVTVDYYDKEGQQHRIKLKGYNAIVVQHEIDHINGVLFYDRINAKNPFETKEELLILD

[5] = test system: Streptococcus Pneumoniae Pen NS; assay: MIC microdilution, S. Pneumoniae Pen NS; format: cell-based; conditions: read-out: MIC Streptococcus Pneumoniae Pen NS
Description: as §1, §2

[6] = test system: Streptococcus Pneumoniae Pen S; assay: MIC microdilution, S. Pneumoniae Pen S; format: cell-based; conditions: read-out: MIC Streptococcus Pneumoniae Pen S
Description: as §1, §2

Streptococcus pyogenes = assay: MIC microdilution, S. pyogenes; format: cell-based; conditions: read-out: MIC Streptococcus pyogenes
Description: as §1, §2

[7] = Acute toxicity study in mice; conditions: mouse, in vivo, po, 4000 mg/kg; ICR mice, orally, observed for 14 days
Description: The acute toxicity of the compounds of Example 5, 17 and 22 were tested using several groups of ICR mice each of 6 mice.

PDF enzyme [8] = molecular target: T1, PDF enzyme (Streptococcus pneumoniae serotype 4, UniProt Q9F2F0); assay: PDF/FDH coupled enzyme assay, Streptococcus Pneumoniae; format: biochemical; conditions: substrate fMAS, absorption at 340 nm
T1 sequence (Q9F2F0 1-203): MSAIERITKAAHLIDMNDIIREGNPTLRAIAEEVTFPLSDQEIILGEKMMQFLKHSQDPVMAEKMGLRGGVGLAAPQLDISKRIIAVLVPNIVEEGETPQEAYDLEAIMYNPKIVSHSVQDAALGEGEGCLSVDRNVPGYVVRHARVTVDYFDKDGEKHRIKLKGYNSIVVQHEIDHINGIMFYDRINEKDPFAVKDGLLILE

[9] = microdilution, Mueller-Hinton Broth, 37° C., 24 hours

For `CN(c1ccccc1)C1CCN(C(=O)[C@@H](NC(=O)[C@H](CC2CCCC2)CN(O)C=O)C(C)(C)C)CC1` [Example 22, (R)-2-Cyclopentylmethyl-N-{(S)-2,2-dimethyl-1-[4-(methyl-phenyl-amino)-piperidine-1-carbonyl]-propyl}-3-(formyl-hydroxy-amino)-propionamide], the MIC [1, 9] was 3.1 µg/mL (≈ 6.19 µM), the MIC [2, 9] was 0.2 µg/mL (≈ 0.399 µM) and the IC50 (PDF enzyme [3]) was 113 nM. The IC50 (PDF enzyme [4]) was 42 nM, the MIC [5, 9] was 0.2 µg/mL (≈ 0.399 µM) and the MIC [6, 9] was 0.05 µg/mL (≈ 0.0999 µM). The MIC (Streptococcus pyogenes; [9]) was 0.05 µg/mL (≈ 0.0999 µM), the LD50 at 14 days [7] was > 2000 mg/kg and the IC50 (PDF enzyme [8]) was 25 nM.
For `CC(C)(C)[C@H](NC(=O)[C@H](CC1CCCC1)CN(O)C=O)C(=O)N1CCC(Nc2ccc(F)cc2)CC1` [Example 17, (R)-2-Cyclopentylmethyl-N-{(S)-1-[4-(4-fluoro-phenylamino)-piperidine-1-carbonyl]-2,2-dimethyl-propyl}-3-(formyl-hydroxy-amino)-propionamide], the MIC ([1]; 24 h) was 3.1 µg/mL (≈ 6.14 µM), the MIC ([2]; 24 h) was 0.4 µg/mL (≈ 0.793 µM) and the MIC ([5]; 24 h) was 0.8 µg/mL (≈ 1.59 µM). The MIC ([6]; 24 h) was 0.2 µg/mL (≈ 0.396 µM), the MIC (Streptococcus pyogenes; 24 h) was 0.2 µg/mL (≈ 0.396 µM) and the LD50 at 14 days [7] was > 2000 mg/kg.
In the case of `COc1ccc(CNC2CCN(C(=O)[C@@H](NC(=O)[C@H](CC3CCCC3)CN(O)C=O)C(C)(C)C)CC2)cc1` [Example 5, (R)-2-Cyclopentylmethyl-3-(formyl-hydroxy-amino)-N-{(S)-1-[4-(4-methoxy-benzylamino)-piperidine-1-carbonyl]-2,2-dimethyl-propyl}-propionamide], the MIC [1, 9] is reported as 6.3 µg/mL (≈ 11.9 µM), the MIC [2, 9] is reported as 1.6 µg/mL (≈ 3.01 µM) and the MIC [5, 9] is reported as 0.8 µg/mL (≈ 1.51 µM). The MIC [6, 9] was 0.2 µg/mL (≈ 0.377 µM), the MIC (Streptococcus pyogenes; [9]) was 0.4 µg/mL (≈ 0.754 µM) and the LD50 at 14 days [7] was > 2000 mg/kg.
